US11324768B2, “Applications of triacetyl-3-hydroxyl phenyl adenosine in treating vascular inflammations or improving vascular endothelium functions” (priority 2016, dated 2022)

How the values were obtained:
Format in all cases: in vivo
AMPK-eNOS pathway = assay: Mechanism of improving endothelial function (Western Blotting, total nitric oxide synthase activity in serum); details: ApoE−/− mice
Description: (§1) After 1 week of adaptive feeding, the animals were randomly divided into 7 groups according to body weight: normal control group, model control group A769662 (30 mg/kg) administration group, metformin (260 mg/kg) administration group, IMM-H007 low, medium, and high administration groups (50, 100, 200 mg/kg), 8 in each group, and were given a high-fat diet (78.6% basal diet, 10% lard, 1.0% cholesterol, 10% egg yolk powder, and 0.4% bile salt), and simultaneously administered intragastrically at a dose of 0.1 ml/10 g body weight, and were continuously administered and fed for 8 weeks to establish an atherosclerosis model.
The expression levels of AMPK, pAMPK, peNOS, eNOS, Caveolin-1 proteins were analyzed and measured by Western Blotting to determine the total nitric oxide synthase activity in serum.

TNF-α = assay: Serum inflammatory factor TNF-α in ApoE−/− mice (ELISA); set-up: unit not given here
Description: as §1, with “and simultaneously administered intragastrically at a dose of 0.1 ml/10 g” left out
(2) Effect of IMM-H007 on Serum Inflammatory Factors TNF-α and VCAM-1 in ApoE−/− Mice
Operated according to kit instructions

mesenteric arterioles = assay: Microvascular endothelial function in Ob/Ob obese mice (mesenteric arterioles, Ach / SNP relaxation)
Description: PSS and KPSS solutions were configured according to the instructions and used at the same time of the day. The PSS solution was taken out before the start of the experiment and pre-oxygenated for about 20 min. The ApoE−/− mice, which were fed with high-fat and simultaneously administered for 10 weeks, were anesthetized with pentobarbital sodium. The mice were supine and fixed. The abdominal cavity was opened along the median line. The mesenteric vascular bed was isolated and placed in the pre-oxygenated 20-minute PSS buffer. Under a stereomicroscope, a third-order mesenteric artery with a length of about 3 mm was carefully isolated. Firstly, the blood vessel was fixed to a P1 glass cannula and the coil was tightened. Note: the proximal end should be connected to the P1 end, and the P2 end vessel should be fixed and the coil should be tightened. The Chamber was placed on a objective table of the microscope and the data connection between Chamber and Interface was checked. The bath cover was covered and the oxygen was introduced, to exhaust air in the pipeline. The blood vessel image was found under the microscope and then the microscope was turned to camera mode. (The knob on the side of the eyepiece was rotated to graph.) MyoVIEW software was opened. The Camera window Capture was clicked to display the blood vessel image. The equilibration of blood vessels slowly rose from 10 mmHg to 60 mmHg, and each step was 300 s. After the equilibration procedure was completed, the solution in the bath was drained. Blood vessels were stimulated (10 ml) for 2 min using a 37° C. pre-heated KPSS solution, and changes in vasoconstriction were observed, and the blood vessels were then eluted using the PSS solution to baseline. The blood vessels were equilibrated at 60 mmHg 37° C. for 45 minutes, during which time the fluid was replaced every 20 minutes. The experiment was started: observing the vasodilatory response induced by 10^−10 to 10^−5 M Ach after pre-contraction with 2 μM phenylephrine, to evaluate the effect of the drugs on the vascular endothelial function. At the end of the experiment, the fresh 37° C. pre-heated PSS buffer was replaced for equilibration for 30 min, and the 10^−10M to 10^−3 M sodium nitroprusside were given to induce vasodilatory response after pre-contraction with 2 μM phenylephrine, to evaluate the effect of the drugs on vascular smooth muscle function. LD1 was the diameter of blood vessel after relaxation by administration of different concentrations of ACh or sodium nitroprusside, LD2 was the diameter of blood vessels after pre-contraction with phenylephrine, and LD3 represented the maximum diastolic diameter of blood vessel without any stimulant.
The relaxation response to Ach and sodium nitroprusside after pre-contraction with phenylephrine was expressed as the percentage increase in the vascular diameter: % Relaxation=(LD1−LD2)/(LD3−LD2)×100.
[…] The changes of food intake and body weight were recorded, and routine biochemical indicators such as blood lipids and blood glucose, etc. were measured. After 9 weeks, 3 animals were taken from each group and the mesenteric arterioles were taken for measurement of vascular endothelial function in the same manner as in Example 2.

ApoE−/− mice = assay: Plaque area in ApoE−/− mice (oil red O staining of aorta and aortic root); details: for plaque area, Overall length of aorta: in % (unit assumed)
Description: as §1, with “and were continuously administered and fed for 8 weeks to establish an atherosclerosis” left out
The aortic root was stained with oil red O and the overall length of the aorta was stained with oil red O. The pathological images were analyzed by Photoshop, Image 1, and Image-Pro Plus softwares. The pathological grading data were statistically analyzed using Chi-square test.

In the case of `CC(=O)OCC1OC(n2cnc3c(Nc4cccc(O)c4)ncnc32)C(OC(C)=O)C1OC(C)=O` (stereo not shown) [IMM-H007, 2′,3,′ 5′-triacetyl-N^6(3-hydroxyphenyl)adenosine], the NO production (AMPK-eNOS pathway) is reported as “increases”, the AMPK-eNOS pathway (AMPK-eNOS pathway; Western Blotting) is reported as “activation” and the “activity of nitric oxide synthase” value (AMPK-eNOS pathway; serum) is reported as “improves”. For the same molecule, the “serum TNF-α” value (TNF-α; 100 mg/kg) was 256.3 ± 46.4, the “serum TNF-α” value (TNF-α; 200 mg/kg) was 250.2 ± 27.8 and the microvascular endothelial function (mesenteric arterioles; 400 mg/kg, 9 weeks) was “improve”. The “acetylcholine endothelium-dependent relaxation of microvascular” value (mesenteric arterioles; 400 mg/kg, 1 × 10^−5 M Ach) was 93.6 ± 1.1 %, the “acetylcholine endothelium-dependent relaxation of microvascular” value (mesenteric arterioles; 400 mg/kg, 1 × 10^−6 M Ach) was 82.1 ± 9.3 % and the “acetylcholine endothelium-dependent relaxation of microvascular” value (mesenteric arterioles; 400 mg/kg, 1 × 10^−7 M Ach) was 71.7 ± 13.5 %. The “acetylcholine endothelium-dependent relaxation of microvascular” value (mesenteric arterioles; 400 mg/kg, 1 × 10^−8 M Ach) was 57.6 ± 15.8 %, the “acetylcholine endothelium-dependent relaxation of microvascular” value (mesenteric arterioles; 400 mg/kg, 1 × 10^−9 M Ach) was 32.3 ± 18.9% and the “acetylcholine endothelium-dependent relaxation of microvascular” value (mesenteric arterioles; 400 mg/kg, 1 × 10^−10 M Ach) was 0.96 ± 0.85%. For the same molecule, the “sodium nitroprusside endothelium-independent relaxation of microvascular” value (mesenteric arterioles; 1 × 10^−3 M SNP) was 95.0 ± 3.8%, the “sodium nitroprusside endothelium-independent relaxation of microvascular” value (mesenteric arterioles; 1 × 10^−4 M SNP) was 94.3 ± 2.3% and the “sodium nitroprusside endothelium-independent relaxation of microvascular” value (mesenteric arterioles; 1 × 10^−5 M SNP) was 91.4 ± 2.5%. For the same molecule, the “sodium nitroprusside endothelium-independent relaxation of microvascular” value (mesenteric arterioles; 1 × 10^−6 M SNP) was 80.8 ± 6.9%, the “sodium nitroprusside endothelium-independent relaxation of microvascular” value (mesenteric arterioles; 1 × 10^−7 M SNP) was 68.3 ± 5.1% and the “sodium nitroprusside endothelium-independent relaxation of microvascular” value (mesenteric arterioles; 1 × 10^−8 M SNP) was 58.9 ± 3.2%. The “sodium nitroprusside endothelium-independent relaxation of microvascular” value (mesenteric arterioles; 1 × 10^−9 M SNP) was 43.5 ± 4.1%, the “sodium nitroprusside endothelium-independent relaxation of microvascular” value (mesenteric arterioles; 1 × 10^−10 M SNP) was 16.9 ± 6.3% and the “plaque area, Frozen section of root of aorta %” value (“plaque area … of aorta %” for short) (ApoE−/− mice; 50 mg/kg) was 3.66 ± 2.65 %. The “plaque area, Overall length of aorta” value (ApoE−/− mice; 50 mg/kg) was 6.18 ± 3.57, the “plaque area … of aorta %” value (ApoE−/− mice; 100 mg/kg) was 2.36 ± 0.43 % and the “plaque area, Overall length of aorta” value (ApoE−/− mice; 100 mg/kg) was 3.93 ± 2.40. The “plaque area … of aorta %” value (ApoE−/− mice; 200 mg/kg) was 2.97 ± 0.92 %, the “plaque area, Overall length of aorta” value (ApoE−/− mice; 200 mg/kg) was 3.67 ± 1.69 and the “lipid accumulation at the plaque site, section staining of the root of aorta” value (ApoE−/− mice; high-fat diet for 10 weeks) was “a decrease”. The “plaque accumulation in the arch of aorta and overall length of aorta” value (ApoE−/− mice; high-fat diet for 10 weeks) was “significantly reduce”.
